Results: the supplement of paper PMC10307832

Columns and labels:
Experiment in all cases: relative viability (nuclei count vs DMSO), 5 days (fraction); higher = more cells survive
ALW-II-49-7 + Tozasertib = compound: Cc1ccc(C(=O)Nc2cccc(C(F)(F)F)c2)cc1Nc1cncc(C(N)=O)c1 [ALW-II-49-7] + Cc1cc(Nc2cc(N3CCN(C)CC3)nc(Sc3ccc(NC(=O)C4CC4)cc3)n2)n[nH]1 [Tozasertib] (partner 0.1 µM)
In short: (§1)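 Values are medians from duplicate plates. Each reflects relative viability, defined as the nuclei count of treated wells over that of vehicle wells. Lung cancer cell lines in 1536-well plates were pin-tool dosed one day after seeding with one drug alone or with a fixed anchor-drug dose plus five library-drug doses (not always all listed) in √10 steps, then fixed, stained and imaged at 4× after 5 days.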

ALW-II-49-7 + Navitoclax = compound: Cc1ccc(C(=O)Nc2cccc(C(F)(F)F)c2)cc1Nc1cncc(C(N)=O)c1 [ALW-II-49-7] + CC1(C)CCC(c2ccc(Cl)cc2)=C(CN2CCN(c3ccc(C(=O)NS(=O)(=O)c4ccc(N[C@H](CCN5CCOCC5)CSc5ccccc5)c(S(=O)(=O)C(F)(F)F)c4)cc3)CC2)C1 [Navitoclax] (partner 0.5 µM)
In short: as §1

XMD13-2 + Luminespib = compound: C1CC1C(=O)NC2=NNC3=C2C=CC(=C3)C4=CC(=CC=C4)C(=O)NC5CC5 [XMD13-2] + CCNC(=O)c1noc(-c2cc(C(C)C)c(O)cc2O)c1-c1ccc(CN2CCOCC2)cc1 [Luminespib] (partner 0.01 µM)
In short: as §1

XMD13-2 + Pictilisib = compound: C1CC1C(=O)NC2=NNC3=C2C=CC(=C3)C4=CC(=CC=C4)C(=O)NC5CC5 [XMD13-2] + CS(=O)(=O)N1CCN(Cc2cc3nc(-c4cccc5[nH]ncc45)nc(N4CCOCC4)c3s2)CC1 [Pictilisib] (partner 1 µM)
In short: as §1

| Cell Line | relative viability (ALW-II-49-7 + Tozasertib; first compound 0.08 µM) | relative viability (ALW-II-49-7 + Tozasertib; first compound 0.253 µM) | relative viability (ALW-II-49-7 + Tozasertib; first compound 0.8 µM) | relative viability (ALW-II-49-7 + Tozasertib; first compound 2.53 µM) | relative viability (ALW-II-49-7 + Tozasertib; first compound 8 µM) | relative viability (ALW-II-49-7 + Navitoclax; first compound 0.08 µM) | relative viability (ALW-II-49-7 + Navitoclax; first compound 0.253 µM) | relative viability (ALW-II-49-7 + Navitoclax; first compound 0.8 µM) | relative viability (ALW-II-49-7 + Navitoclax; first compound 2.53 µM) | relative viability (ALW-II-49-7 + Navitoclax; first compound 8 µM) | relative viability (XMD13-2 + Luminespib; first compound 0.05 µM) | relative viability (XMD13-2 + Luminespib; first compound 0.1581 µM) | relative viability (XMD13-2 + Luminespib; first compound 0.5 µM) | relative viability (XMD13-2 + Luminespib; first compound 1.581 µM) | relative viability (XMD13-2 + Luminespib; first compound 5 µM) | relative viability (XMD13-2 + Pictilisib; first compound 0.05 µM) | relative viability (XMD13-2 + Pictilisib; first compound 0.1581 µM) | relative viability (XMD13-2 + Pictilisib; first compound 0.5 µM) | relative viability (XMD13-2 + Pictilisib; first compound 1.581 µM) | relative viability (XMD13-2 + Pictilisib; first compound 5 µM) |
| --- | --- | --- | --- | --- | --- | --- | --- | --- | --- | --- | --- | --- | --- | --- | --- | --- | --- | --- | --- | --- |
| NCI-H2347 | 0.422 | 0.543 | 0.463 | 0.563 | 0.57 | 0.899 | 0.807 | 0.721 | 0.44 | 0.685 | 0.405 | 0.342 | 0.486 | 0.54 | 0.791 | 0.743 | 0.655 | 0.826 | 0.827 | 0.387 |
| NCI-H2405 | 0.73 | 0.692 | 0.687 | 0.642 | 0.547 | 0.761 | 0.974 | 0.779 | 0.241 | 0.735 | 0.853 | 0.634 | 0.578 | 0.641 | 0.633 | 0.539 | 0.543 | 0.434 | 0.389 | 0.474 |
| NCI-H3122 | 0.437 | 0.202 | 0.371 |  | 0.373 | 1.06 | 1.06 | 1.07 | 1.09 | 1.05 | 0.102 | 0.0949 | 0.106 | 0.105 | 0.0867 | 0.655 | 0.598 | 0.585 | 0.662 | 0.505 |
| PC-3 [JPC-3] | 0.653 | 0.946 | 0.867 | 0.776 | 0.843 | 0.693 | 0.891 | 0.757 | 0.816 | 0.82 | 0.681 | 0.661 | 0.64 | 0.776 | 0.782 | 0.746 | 0.733 | 0.777 | 0.747 | 0.724 |
| PC-14 | 0.584 | 0.657 | 0.503 | 0.288 | 0.492 | 1.04 | 0.92 | 0.923 | 0.911 | 0.86 | 0.133 | 0.192 | 0.118 | 0.151 | 0.154 | 0.995 | 0.684 | 0.67 | 0.608 | 0.766 |
| RERF-LC-KJ | 0.442 | 0.524 | 0.461 | 0.506 | 0.321 | 0.876 | 1.27 | 0.938 | 1.05 | 0.866 | 1.32 | 1.29 | 1.22 | 1.14 | 1.1 | 0.57 | 0.558 | 0.435 | 0.571 | 0.5 |
| SK-LU-1 | 0.323 | 0.391 | 0.295 | 0.289 | 0.242 | 1.09 | 0.769 | 1.2 | 0.585 | 0.474 | 0.217 | 0.239 | 0.227 | 0.194 | 0.211 | 0.604 | 0.671 | 0.658 | 0.563 | 0.502 |
| SK-MES-1 | 0.878 | 0.986 | 0.843 | 0.844 | 0.568 | 1.03 | 1.34 | 1.15 | 0.961 | 0.647 | 1.06 | 0.67 | 0.773 | 0.711 | 0.556 | 0.408 | 0.422 | 0.333 | 0.365 | 0.349 |
| SW 1573 | 0.187 | 0.248 | 0.186 | 0.196 | 0.151 | 1.01 | 0.932 | 1.21 | 1.11 | 0.787 | 0.276 | 0.239 | 0.308 | 0.188 | 0.213 | 0.57 | 0.525 | 0.476 | 0.466 | 0.272 |
